Assay results taken from PMC10122656, “Siglec-6 mediates the uptake of extracellular vesicles through a noncanonical glycolipid binding pocket” (Nature Communications, 2023).
Values joined by “and” are separate entries in the source; they are usually repeats but may differ in a detail not shown here. Equal values may be shown once.

Legend:
Siglec-1 fragment = Siglec-1 fragment (Homo sapiens, UniProt Q9BZZ2); assay: Direct ESI-MS binding assay; settings: oligosaccharide moiety of the ganglioside; 3.6 µM Siglec-1 fragment, 20-140 µM ligand; table gives replicates, text mean ± SD; read-out: dissociation constant (Kd) of soluble Siglec-1 to the ganglioside oligosaccharide
Experimental: The affinities of ganglioside (GM1, GM2, GM3, and GD1a) oligosaccharides (L) for the Siglec-1 fragment were measured by the direct ESI-MS assay[1]. A reference protein (Pref) was added to the ESI solutions in order to correct mass spectra for any nonspecific binding that occurred during the ESI process[2]. […] Direct ESI-MS measurements were performed with nanoflow ESI in positive ion mode (voltage ~1 kV) on a Q-Exactive Orbitrap mass spectrometer (Thermo Fisher Scientific). Automatic gain control (AGC) target, the maximum inject time, capillary temperature, and S-lens RF level were set to 1 × 10^6, 100 ms, 150, and 100 °C, respectively. The resolution was 17,500 at m/z 200. Data acquisition and processing were carried out using Xcalibur (Thermo Fisher, version 4.1).

WT Siglec-6 CHO cells = target: T1, WT Siglec-6 CHO cells (Homo sapiens, UniProt O43699); assay: Cell assay (liposome/EV binding, flow cytometry);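 on liposome binding, fluorescence signal (replicates): AF647 fluorescence intensity from 0.1 mol% AF647–PEG45–DSPE in liposomes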; type: cell-based; settings: for Binding of liposomes to WT Siglec-6 CHO cells relative to liposomes formulated without a ligand (Fig. 3c): 3 mol% glycolipid, Cer = native ganglioside, Amide = amide-linked nGL; for Binding of liposomes to WT Siglec-6 CHO cells relative to liposomes formulated without a ligand (Fig. 3c) / Binding of nGL liposomes relative to liposomes formulated with 3 mol% nGL 5 (Fig. 3g): replicates; for nGLL binding to WT Siglec-6 CHO cells (in words): 3 mol% nGL in liposomes; for Binding of nGL liposomes relative to liposomes formulated with 3 mol% nGL 5 (Fig. 3g): WT Siglec-6 CHO cells
T1 construct: expressed in transfected cells
Experimental: (§1) Stock lipids (DSPC, Cholesterol, PEG45–DSPE) solutions were prepared by solvating the lipids in chloroform. An appropriate volume of each lipid solution was transferred to a glass test tube to reach the desired mol% of the component. The chloroform was then removed under N2 gas to yield a lipid thin film. Once dry, 100 µL of DMSO was added to the lipid-containing test tube and then the functional lipids (ganglioside, AF647–PEG45–DSPE, Siglec ligand–PEG45–DSPE, pHrodo–PEG45–DSPE, NGL) was added from their respect DMSO stock solution. The lipid mixture was then stored at −80 °C until completely frozen at which point excess DMSO was removed via lyophilization. Dry lipids were then stored at −80 °C until they were extruded. Lipid suppliers can be found in Supplementary Table 4.
(§2) Dry lipids were then hydrated in 1 mL of PBS. The lipids were then sonicated in a bath sonicator in a cycle of 1 min on, 5 min off for a total of five cycles. Liposomes were then extruded using an Avanti mini extruder first using an 800 nm filter and then a 100 nm filter yielding liposomes that were 130 ± 35 nm (Supplementary Table 5) measured using a Malvern Panalytical Zetasizer Nano S. Liposomes were stored at 4 °C.
(§3) 200,000 cells/well were plated into a 96-well U-bottom microplate and centrifuged at 300 × g for 5 min. The cells were then resuspended in 50 µL of 50 µM liposome/50 µg/mL (protein concentration) of EV solution in DMEM F12 5% FBS and incubated at 37 °C for 30 min. Excess liposomes were then removed via centrifuged at 300 × g for 5 min followed by washing the cells with FACS solution. The cells were then resuspended in (1:250 V/V) anti-Siglec-flow buffer (1% V/V FBS, 500 µM, EDTA Hank’s Balanced Salt Solution pH 7.4), solution and left to rest on ice for 30 min. The cells were then centrifuged again at 300 × g for 5 min and the cells were resuspended in FACS buffer solution and were then ready for analysis by flow cytometry. Information regarding antibody clone, catalog number supplier, label isotype, and dilution can be found in Supplementary Table 6. The Siglec-positive cells were gated on for liposome-binding analysis (Supplementary Fig. 1b).
(§4) Flow cytometry measurements were collected on a 5-laser Fortessa X-20 (BD Bioscience). All the resulting data were analyzed using FlowJo (10.5.3) software (BD Biosciences).

R122A Siglec-6 CHO cells = target: T2, R122A Siglec-6 CHO cells (Homo sapiens, UniProt O43699, R122A); assay: Cell assay (liposome/EV binding, flow cytometry);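 on liposome binding, fluorescence signal (replicates): AF647 fluorescence intensity from 0.1 mol% AF647–PEG45–DSPE in liposomes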; type: cell-based; settings: for nGLL binding to R122A Siglec-6 CHO cells (in words): 3 mol% nGL in liposomes, compared to 3 mol% 5; for Binding of nGL liposomes relative to liposomes formulated with 3 mol% nGL 5 (Fig. 3g): R122A Siglec-6 CHO cells, replicates; for liposome binding, fluorescence signal (replicates): sheet Figure S18b, cells not given
T2 construct: expressed in transfected cells
Experimental: as §1, §2, §3, §4

WT Siglec-1 CHO cells = target: T3, WT Siglec-1 CHO cells (Homo sapiens, UniProt Q9BZZ2); assay: Cell assay (liposome/EV binding, flow cytometry); type: cell-based; parameters: GM1 liposome binding to Siglec-1 CHO cells, flow cytometry (Fig. 1b) / Binding of liposomes with increasing ganglioside content against Siglec-1 CHO cells (Fig. 1c) / Liposome binding to Siglec-1-expressing CHO cells in the cell assay (Fig. 1f): unit not given here
T3 construct: expressed in transfected cells
Experimental: as §1, §2, §3, §4

[1] = test system: untransfected (UT) CHO cells; assay: Cell assay (liposome/EV binding, flow cytometry); type: cell-based, Chinese Hamster; settings: sheet Figure S22b, CHO;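 further: AF647 fluorescence intensity from 0.1 mol% AF647–PEG45–DSPE in liposomes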
Experimental: as §1, §2, §3, §4

[2] = sheet Figure S17, cells not given, three experiments, each with its own Naked control
[3] = sheet Figure S18a, cells not given

T3 sequence (Q9BZZ2 20-1709): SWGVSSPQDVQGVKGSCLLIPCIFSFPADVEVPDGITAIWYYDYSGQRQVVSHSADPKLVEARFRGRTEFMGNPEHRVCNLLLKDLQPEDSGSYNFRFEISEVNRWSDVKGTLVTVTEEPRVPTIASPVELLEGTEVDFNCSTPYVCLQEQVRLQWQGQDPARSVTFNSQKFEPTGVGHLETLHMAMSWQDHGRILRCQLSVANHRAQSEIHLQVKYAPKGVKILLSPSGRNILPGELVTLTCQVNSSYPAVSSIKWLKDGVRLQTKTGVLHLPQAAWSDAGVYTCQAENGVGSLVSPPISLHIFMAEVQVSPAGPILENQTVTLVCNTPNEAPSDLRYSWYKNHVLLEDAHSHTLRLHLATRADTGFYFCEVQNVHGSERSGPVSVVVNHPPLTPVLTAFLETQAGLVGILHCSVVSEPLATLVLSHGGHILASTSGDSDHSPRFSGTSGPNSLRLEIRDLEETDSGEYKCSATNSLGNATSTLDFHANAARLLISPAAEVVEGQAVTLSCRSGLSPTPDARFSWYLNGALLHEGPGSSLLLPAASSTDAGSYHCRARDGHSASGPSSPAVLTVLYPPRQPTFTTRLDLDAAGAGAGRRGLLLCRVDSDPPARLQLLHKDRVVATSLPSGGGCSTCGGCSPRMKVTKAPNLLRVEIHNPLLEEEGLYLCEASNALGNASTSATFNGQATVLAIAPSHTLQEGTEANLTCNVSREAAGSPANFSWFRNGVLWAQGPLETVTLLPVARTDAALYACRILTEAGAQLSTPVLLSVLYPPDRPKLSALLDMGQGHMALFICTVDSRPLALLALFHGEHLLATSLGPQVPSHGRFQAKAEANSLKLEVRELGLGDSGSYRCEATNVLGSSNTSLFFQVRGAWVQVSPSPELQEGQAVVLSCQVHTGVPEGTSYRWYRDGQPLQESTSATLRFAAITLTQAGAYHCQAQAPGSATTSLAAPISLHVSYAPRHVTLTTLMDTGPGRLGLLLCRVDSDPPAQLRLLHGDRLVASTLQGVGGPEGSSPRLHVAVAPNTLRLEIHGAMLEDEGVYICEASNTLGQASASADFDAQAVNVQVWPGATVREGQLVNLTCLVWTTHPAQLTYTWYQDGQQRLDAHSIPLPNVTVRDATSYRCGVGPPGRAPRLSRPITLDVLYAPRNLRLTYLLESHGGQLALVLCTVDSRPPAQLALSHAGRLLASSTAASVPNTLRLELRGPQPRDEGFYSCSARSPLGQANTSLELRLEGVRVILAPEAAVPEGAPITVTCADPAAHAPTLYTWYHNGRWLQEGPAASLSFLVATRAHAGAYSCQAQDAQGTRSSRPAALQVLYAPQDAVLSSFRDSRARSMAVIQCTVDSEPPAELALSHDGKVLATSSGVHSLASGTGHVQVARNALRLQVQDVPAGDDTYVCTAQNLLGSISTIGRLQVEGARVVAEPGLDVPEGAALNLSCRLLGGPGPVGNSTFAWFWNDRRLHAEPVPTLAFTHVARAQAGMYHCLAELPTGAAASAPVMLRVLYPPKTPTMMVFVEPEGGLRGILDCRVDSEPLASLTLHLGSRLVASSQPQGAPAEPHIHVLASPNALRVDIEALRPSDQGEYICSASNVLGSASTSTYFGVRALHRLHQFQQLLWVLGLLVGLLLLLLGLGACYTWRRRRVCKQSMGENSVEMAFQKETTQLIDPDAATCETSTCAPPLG
T1 sequence (O43699 27-453): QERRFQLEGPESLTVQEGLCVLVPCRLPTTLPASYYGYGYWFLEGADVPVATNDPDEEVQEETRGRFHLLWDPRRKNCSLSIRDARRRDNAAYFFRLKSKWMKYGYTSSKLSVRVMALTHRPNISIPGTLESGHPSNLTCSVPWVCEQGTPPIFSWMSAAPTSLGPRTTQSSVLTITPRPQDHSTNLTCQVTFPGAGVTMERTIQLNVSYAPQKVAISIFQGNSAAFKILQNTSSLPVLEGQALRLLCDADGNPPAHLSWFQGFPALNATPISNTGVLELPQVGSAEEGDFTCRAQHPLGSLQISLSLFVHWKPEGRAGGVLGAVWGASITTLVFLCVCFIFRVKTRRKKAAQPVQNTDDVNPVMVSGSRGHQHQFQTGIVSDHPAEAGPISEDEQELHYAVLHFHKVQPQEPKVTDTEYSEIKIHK
T2 sequence (O43699 27-453 R122A): as the sequence (O43699 27-453) above, with R96A counted along it
Chain of Siglec-1 fragment (Q9BZZ2 20-136 limits assumed): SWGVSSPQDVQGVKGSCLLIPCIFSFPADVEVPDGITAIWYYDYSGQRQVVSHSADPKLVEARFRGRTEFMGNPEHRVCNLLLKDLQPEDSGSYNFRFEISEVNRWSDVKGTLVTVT

| Compound | nGLL binding to WT Siglec-6 CHO cells (in words) (WT Siglec-6 CHO cells) | Binding of nGL liposomes relative to liposomes formulated with 3 mol% nGL 5 (Fig. 3g) (R122A Siglec-6 CHO cells) | liposome binding, fluorescence signal (replicates) (R122A Siglec-6 CHO cells) | Binding of nGL liposomes relative to liposomes formulated with 3 mol% nGL 5 (Fig. 3g) (WT Siglec-6 CHO cells) | liposome binding, fluorescence signal (replicates) (WT Siglec-6 CHO cells; [3]) | further results |
| --- | --- | --- | --- | --- | --- | --- |
| CC(=O)N[C@H]1[C@H]([C@H](O)[C@H](O)CO)O[C@@](O[C@H]2[C@@H](O)[C@@H](CO)O[C@@H](O[C@H]3[C@H](O)[C@@H](O)C(O)O[C@@H]3CO)[C@@H]2O)(C(=O)O)C[C@@H]1O (stereo partly drawn) [GM3 trisaccharide, α-Neup5Ac-(2 → 3)-β-lactose] |  |  |  |  |  | Kd (Siglec-1 fragment): 500 ± 100 µM |
| CCCCCCCCCCCCCCCCOCC(COCCCCCCCCCCCCCCCC)OCC(=O)NCCO[C@@H]1O[C@H](CO)[C@@H](O[C@@H]2O[C@H](CO)[C@H](O[C@@H]3O[C@H](CO)[C@H](O)[C@H](O[C@@H]4O[C@H](CO)[C@H](O)[C@H](O)[C@H]4O)[C@H]3NC(C)=O)[C@H](O[C@]3(C(=O)O)C[C@H](O)[C@@H](NC(C)=O)[C@H]([C@H](O)[C@H](O)CO)O3)[C@H]2O)[C@H](O)[C@H]1O [nGL 3] | bound minimally |  |  |  |  | Binding of liposomes to WT Siglec-6 CHO cells relative to liposomes formulated without a ligand (Fig. 3c) (WT Siglec-6 CHO cells; listed as GM1 Amide): 0.68 and 0.67 and 0.66 and 0.75; liposome binding, fluorescence signal (replicates) (WT Siglec-6 CHO cells; [2]): 541 and 535 and 525 and 596 |
| CCCCCCCCCCCCCCCCOCC(COCCCCCCCCCCCCCCCC)OCC(=O)NCCO[C@@H]1O[C@H](CO)[C@@H](O[C@@H]2O[C@H](CO)[C@H](O)[C@H](O[C@]3(C(=O)O)C[C@H](O)[C@@H](NC(C)=O)[C@H]([C@H](O)[C@H](O)CO)O3)[C@H]2O)[C@H](O)[C@H]1O [nGL 4] |  |  |  |  |  | Binding of liposomes to WT Siglec-6 CHO cells relative to liposomes formulated without a ligand (Fig. 3c) (WT Siglec-6 CHO cells; listed as GM3 Amide): 2.34 and 2.47 and 2.38 and 2.75; liposome binding, fluorescence signal (replicates) (WT Siglec-6 CHO cells; [2]): 713 and 752 and 727 and 839 |
| CCCCCCCCCCCCCCCCOCC(COCCCCCCCCCCCCCCCC)OCc1cn(CCO[C@@H]2O[C@H](CO)[C@@H](O[C@@H]3O[C@H](CO[C@]4(C(=O)O)C[C@H](O)[C@@H](NC(C)=O)[C@H]([C@H](O)[C@H](O)CO)O4)[C@H](O)[C@H](O)[C@H]3O)[C@H](O)[C@H]2O)nn1 [nGL 8] | bound minimally | 0.06 and 0.08 and 0.07 | 599 and 635 and 605 | 0.05 and 0.03 and 0.06 and 0.07 | 720 and 670 and 748 and 768 | nGLL binding to R122A Siglec-6 CHO cells (in words) (R122A Siglec-6 CHO cells): bound minimally |
| asialo GM1 [GA1] |  |  |  |  |  | Liposome binding to Siglec-1-expressing CHO cells in the cell assay (Fig. 1f) (WT Siglec-1 CHO cells; 3% glycolipid in liposome, replicates): 71 and 68; binding to WT Siglec-1 CHO cells (in words) (WT Siglec-1 CHO cells; cell assay): did not mediate binding; liposome binding, fluorescence signal (replicates) (WT Siglec-6 CHO cells; sheet Figure S22b, Sig-6): 66 and 69 and 61 and 64; liposome binding, fluorescence signal (replicates) [1]: 60 and 57 and 55 and 52 |

Further lines, with some results ahead:

| nGLL binding to WT Siglec-6 CHO cells (in words) (WT Siglec-6 CHO cells) | Binding of nGL liposomes relative to liposomes formulated with 3 mol% nGL 5 (Fig. 3g) (R122A Siglec-6 CHO cells) | liposome binding, fluorescence signal (replicates) (R122A Siglec-6 CHO cells) | Binding of nGL liposomes relative to liposomes formulated with 3 mol% nGL 5 (Fig. 3g) (WT Siglec-6 CHO cells) | liposome binding, fluorescence signal (replicates) (WT Siglec-6 CHO cells; [3]) | Compound | further results |
| --- | --- | --- | --- | --- | --- | --- |
| modestly lower | 0.83 and 0.93 and 0.81 and 1.01 | 1939 and 2127 and 1908 and 2268 | 0.77 and 0.6 and 0.59 and 0.63 | 2520 and 2097 and 2058 and 2158 | CCCCCCCCCCCCCCCCOCC(COCCCCCCCCCCCCCCCC)OCc1cn(CCO[C@@H]2O[C@H](CO)[C@@H](O[C@@H]3O[C@H](CO)[C@H](O)[C@H](O[C@]4(C(=O)O)C[C@H](O)[C@@H](NC(C)=O)[C@H]([C@H](O)[C@H](O)CO)O4)[C@H]3O)[C@H](O)[C@H]2NC(C)=O)nn1 [nGL 9] |  |
| bound minimally | 0.23 and 0.15 and 0.27 | 899 and 894 and 758 and 962 | 0.19 and 0.16 and 0.21 | 1069 and 1003 and 987 and 1125 | CCCCCCCCCCCCCCCCOCC(COCCCCCCCCCCCCCCCC)OCc1cn(CCO[C@@H]2O[C@H](CO)[C@@H](O[C@@H]3O[C@H](CO[C@]4(C(=O)O)C[C@H](O)[C@@H](NC(C)=O)[C@H]([C@H](O)[C@H](O)CO)O4)[C@H](O)[C@H](O)[C@H]3O)[C@H](O)[C@H]2NC(C)=O)nn1 [nGL 10] | nGLL binding to R122A Siglec-6 CHO cells (in words) (R122A Siglec-6 CHO cells): bound minimally |
